Assays:
[1] = biological target: T1, Estrogen receptor (Rattus norvegicus) (UniProt P06211+Q62986); assay: Estrogenic activity in immature rats and assayed as uterine weight gain at 100 ug subcutaneous dose; assay type: functional
[2] = biological target: T1, Estrogen receptor (Rattus norvegicus); assay: Estrogenic activity in immature rats and assayed as uterine weight gain at 5 ug subcutaneous dose; assay type: functional
[3] = biological target: T1, Estrogen receptor (Rattus norvegicus); assay: Anti-uterotrophic activity in immature rats at 5 ug; assay type: functional
[4] = biological target: T1, Estrogen receptor (Rattus norvegicus); assay: Estrogenic activity in immature rats and assayed as uterine weight gain at 0.05 ug subcutaneous dose; assay type: functional
[5] = biological target: T1, Estrogen receptor (Rattus norvegicus); assay: Estrogenic activity in immature rats and assayed as uterine weight gain at 500 ug subcutaneous dose; assay type: functional
[6] = biological target: T1, Estrogen receptor (Rattus norvegicus); assay: Anti-uterotrophic activity in immature rats at 50 ug; assay type: functional
[7] = biological target: T1, Estrogen receptor (Rattus norvegicus); assay: Antiuterotrophic activity in immature rats at 5 ug; assay type: functional
[8] = biological target: T1, Estrogen receptor (Rattus norvegicus); assay: Estrogenic activity as percent of control at 500 ug subcutaneous dose; assay type: functional
[9] = biological target: T1, Estrogen receptor (Rattus norvegicus); assay: Estrogenic activity in immature rats and assayed as uterine weight gain at 50 ug subcutaneous dose; assay type: functional
[10] = biological target: T1, Estrogen receptor (Rattus norvegicus); assay: Anti-uterotrophic activity in immature rats at 100 ug; assay type: functional
[11] = biological target: T1, Estrogen receptor (Rattus norvegicus); assay: Antiuterotrophic activity in immature rats at 50 ug; assay type: functional
[12] = biological target: T1, Estrogen receptor (Rattus norvegicus); assay: Antiuterotrophic activity in immature rats at 100 ug; assay type: functional
[13] = biological target: T1, Estrogen receptor (Rattus norvegicus); assay: Estrogenic activity as percent of control at 50 ug subcutaneous dose; assay type: functional
[14] = biological target: T1, Estrogen receptor (Rattus norvegicus)
[15] = biological target: T1, Estrogen receptor (Rattus norvegicus); assay: Estrogenic activity as percent of control at 100 ug subcutaneous dose; assay type: functional
[16] = biological target: T1, Estrogen receptor (Rattus norvegicus); assay: Estrogenic activity as percent of control at 5 ug subcutaneous dose; assay type: functional
Rattus norvegicus = species on record: Rattus norvegicus; assay: Antiimplantation activity in sperm-positive female albino rats mated to coeval males of proven fertility; assay type: functional

| Uterine wet weight [1] | Uterine wet weight [2] | Uterine wet weight [3] | inhibition [3] [%] | Uterine wet weight [4] | Uterine wet weight [6] | Stimulation [7] [%] | Uterine wet weight [9] | Uterine wet weight [10] | inhibition [10] [%] | Stimulation [11] [%] | Stimulation [12] [%] | Control [13] [%] | Uterine wet weight [14] | Control [15] [%] | Control [16] [%] | SMILES | MED (Rattus norvegicus) [mg/kg] | also measured |
| --- | --- | --- | --- | --- | --- | --- | --- | --- | --- | --- | --- | --- | --- | --- | --- | --- | --- | --- |
| 40.4 | 31.8 | 52.3 | 1.9 | 16.2 | 55.7 | 99 | 40.5 | 42.3 | 28.4 | 105 | 80 | 238 | 16.8 | 238 | 187 | COc1ccc2c(c1)OC(C)(C)C(c1ccccc1)C2c1ccc(OCCN2CCCC2)cc1 (stereo in doubt; form 1) |  | Uterine wet weight [5]: 45.4; Control [8]: 267% |
|  |  |  |  |  |  |  |  |  |  |  |  |  |  |  |  | COc1ccc2c(c1)OC(C)(C)C(c1ccccc1)C2c1ccc(OCCN2CCCC2)cc1 (stereo in doubt; form 1) [ORMELOXIFENE] | 5 |  |
|  |  |  |  |  |  |  |  |  |  |  |  |  |  |  |  | COc1ccc2c(c1)OC(C)(C)C(c1ccccc1)C2c1ccc(OCCN2CCCC2)cc1 (racemic) [ORMELOXIFENE] | 0.25 |  |
|  |  |  |  |  |  |  |  |  |  |  |  |  |  |  |  | COc1ccc2c(c1)CCC(c1ccccc1)=C2c1ccc(OCCN2CCCC2)cc1 [NAFOXIDINE] |  | minimal effective dose (Rattus norvegicus; Rattus norvegicus, read-out: MED): 0.1 mg/kg |
| 49 | 29.5 | 52.5 | 23.8 | 16.6 | 60.3 | 82 | 47.7 | 56 | 16.7 | 94 | 87 | 281 | 16.3 | 288 | 174 | COc1ccc2c(c1)OC(C)(C)C(c1ccccc1)C2c1ccc(OCCN2CCCC2)cc1 (racemic) |  | inhibition [6]: 8.1% |
| 51.4 | 37.8 | 52.7 | 28.7 | 15.8 | 52.6 | 77 | 48.6 | 46.4 | 40.3 | 77 | 68 | 286 | 25.8 | 303 | 222 | COc1ccc2c(c1)OC(C)(C)C(c1ccccc1)C2c1ccc(OCCN2CCCC2)cc1 (stereo in doubt; form 2) |  | inhibition [6]: 28.7% |
|  |  |  |  |  |  |  |  |  |  |  |  |  |  |  |  | COc1ccc2c(c1)OC(C)(C)C(c1ccccc1)C2c1ccc(OCCN2CCCC2)cc1 (stereo in doubt; form 2) [ORMELOXIFENE] | 0.15 |  |

— ChEMBL document CHEMBL1123448, “Studies in antifertility agents. 50. Stereoselective binding of d- and l-centchromans to estrogen receptors and their antifertility activity” (1986)
